Values quoted from earlier work in patent US6569404B1, “Phase shift colloids as ultrasound contrast agents” (priority 1993, dated 2003).

Details: Chemical List of low boiling liquids, Example 45; cited from earlier work

Row | Structure (SMILES) | Boiling Point
1 | Cc1cc2ccccc2c2cc3ccccc3cc12 [1,2-Benzanthracene, 4-methyl] | 1.0 degrees Celcius
2 | C=C=CC [1,2-Butadiene] | 10.8 degrees Celcius
3 | FC(F)=C(F)C(F)=C(F)F [1,3-Butadiene, hexafluoro] | 6.0 degrees Celcius
4 | C=CC=C [1,3-Butadiene] | −4.4 degrees Celcius
5 | C#CCCC#CC [1,5-Heptadiyne] | 26.0 degrees Celcius
6 | FC(F)=C(F)C(F)(F)C(F)(F)F [1-Butene, perfluoro] | 4.8 degrees Celcius
7 | C=CC#CCCCCC [1-Nonene-3-yne] | 27.0 degrees Celcius
8 | FC(F)=C(F)C(F)(F)C(F)(F)C(F)(F)F [1-Pentene, perfluoro] | 29.0 degrees Celcius
9 | C/C=C/C [2-Butene (trans)] | 0.9 degrees Celcius
10 | FC(=C(F)C(F)(F)F)C(F)(F)F [2-Butene, octafluoro] | 1.2 degrees Celcius
11 | FC(=C(F)C(F)(F)F)C(F)(F)F [2-Butene, perfluoro] | 0.0 degrees Celcius
12 | FC(F)(F)C#CC(F)(F)F [2-Butyne, perfluoro] | −24.6 degrees Celcius
13 | O=C(C(F)(F)F)C(F)(F)F [Acetone, hexafluoro] | −28.0 degrees Celcius
14 | CC(=O)F [Acetyl fluoride] | 20.8 degrees Celcius
15 | C#CC(C)C [Acetylene, isopropyl] | 0.0 degrees Celcius
16 | FC(F)=C=C(F)F [Allene, tetrafluoro] | −38.0 degrees Celcius
17 | C=C=C [Allene] | −34.5 degrees Celcius
18 | [Ar] [Argon] | −189.4 degrees Celcius
19 | FC(F)(F)N=NC(F)(F)F [Azomethane, hexafluoro] | −31.6 degrees Celcius
20 | CN=NC [Azomethane] | 1.5 degrees Celcius
21 | O=C(Cl)c1c(Cl)c(Cl)c(Cl)c(Cl)c1Cl [Benzoyl chloride, pentachloro] | 5.0 degrees Celcius
22 | CCCCON=O [Butyl nitrite] | −77.8 degrees Celcius

Row | Structure (SMILES) | Boiling Point
23 | O=C=O [Carbon dioxide] | −78.6 degrees Celcius
24 | O=C=C=C=O [Carbon suboxide] | 6.8 degrees Celcius
25 | O=C=S [Carbonyl sulfide] | −50.0 degrees Celcius
26 | CC=CC#N [Crotononitrile] | 12.0 degrees Celcius
27 | FC1=C(F)C(F)(F)C1(F)F [Cyclobutene, perfluoro] | 3.0 degrees Celcius
28 | CCC1CC1 [Cyclopropane, ethyl] | 34.5 degrees Celcius
29 | CC1CC1 [Cyclopropane, methyl] | 4.0 degrees Celcius
30 | C1CC1 [Cyclopropane] | −32.7 degrees Celcius
31 | FC(F)(F)C(F)(F)C(F)(F)C(F)(F)F [Decaflurobutane] | 4.0 degrees Celcius
32 | C#CC#C [Diacetylene] | 22.0 degrees Celcius
33 | FC(F)(F)SSC(F)(F)F [Dimethyl disulfide, hexafluoro] | 34.6 degrees Celcius
34 | CCN(C)C [Dimethyl ethyl amine] | 36.0 degrees Celcius
35 | COC.Cl [Dimethyloxonium chloride] | −2.0 degrees Celcius
36 | FC(F)OCC(F)(F)F [Ether, difluoromethyl 2,2,2-trifluoroethyl] | 28.0 degrees Celcius
37 | FN(F)C(F)(F)C(F)(F)F [Ethyl amine, perfluoro] | −35.0 degrees Celcius
38 | CCN [Ethyl amine] | 16.6 degrees Celcius
39 | CCNC [Ethyl methyl amine] | 36.7 degrees Celcius
40 | CCOC [Ethyl methyl ether] | 10.8 degrees Celcius
41 | CCON=O [Ethyl nitrite] | 16.0 degrees Celcius
42 | C=COCC [Ethyl vinyl ether] | 35.0 degrees Celcius
43 | C=CCC [Example 1-Butene, 1-Butene] | −6.3 degrees Celcius
44 | C#CCC [Example 1-Butyne, 1-Butyne] | 8.1 degrees Celcius

Row | Structure (SMILES) | Boiling Point
45 | C=CCCC [Example 1-Pentene, 1-Pentene] | 30.0 degrees Celcius
46 | CC#CC [Example 2-Butyne, 2-Butyne] | 27.0 degrees Celcius
47 | COC=O [Formic acid, methyl ester] | 31.5 degrees Celcius
48 | C=C1C=CC=C1 [Fulvene] | 7.0 degrees Celcius
49 | C=C(C)C [Isobutylene] | −6.9 degrees Celcius
50 | C=CC(=C)C [Isoprene] | 34.0 degrees Celcius
51 | [Kr] [Krypton] | −153.0 degrees Celcius
52 | O=S(=O)(Cl)C(F)(F)F [Methane sulfonyl chloride, trifluoro] | 31.6 degrees Celcius
53 | O=NC(F)(F)Br [Methane, bromo difluoro nitroso] | −12.0 degrees Celcius
54 | FCBr [Methane, bromo fluoro] | 19.0 degrees Celcius
55 | FC(Cl)Br (stereo not shown) [Methane, bromo-chloro-fluoro] | 36.0 degrees Celcius
56 | FC(F)(F)Br [Methane, bromo-trifluoro] | −57.9 degrees Celcius
57 | O=[N+]([O-])C(F)(F)Cl [Methane, chloro difluoro nitro] | 25.0 degrees Celcius
58 | FCCl [Methane, chloro fluoro] | −9.1 degrees Celcius
59 | FC(F)(F)Cl [Methane, chloro trifluoro] | −81.4 degrees Celcius
60 | FC(F)Cl [Methane, chloro-difluoro] | −40.8 degrees Celcius
61 | FC(F)(Br)Br [Methane, dibromo difluoro] | 24.5 degrees Celcius
62 | FC(F)(Cl)Cl [Methane, dichloro difluoro] | −29.8 degrees Celcius
63 | FC(Cl)Cl [Methane, dichloro-fluoro] | 9.0 degrees Celcius
64 | ClCCl [Methane, dichloro] | 40.0 degrees Celcius
65 | FCF [Methane, difluoro] | −51.6 degrees Celcius
66 | [SiH3]C[SiH3] [Methane, disilano] | 14.7 degrees Celcius

Row | Structure (SMILES) | Boiling Point
67 | CI [Methane, iodo-] | 42.4 degrees Celcius
68 | FC(F)(F)I [Methane, iodo-trifluoro] | −22.5 degrees Celcius
69 | O=[N+]([O-])C(F)(F)F [Methane, nitro-trifluoro] | −31.1 degrees Celcius
70 | O=NC(F)(F)F [Methane, nitroso-trifluoro] | −84.0 degrees Celcius
71 | FC(F)(F)F [Methane, tetrafluoro] | −129.0 degrees Celcius
72 | FC(Cl)(Cl)Cl [Methane, trichlorofluoro] | 23.7 degrees Celcius
73 | C [Methane] | −164.0 degrees Celcius
74 | FC(F)(F)SCl [Methanesulfenylchloride, trifluoro] | −0.7 degrees Celcius
75 | CS [Methanethiol] | 62 degrees Celcius
76 | COC [Methyl ether] | −25.0 degrees Celcius
77 | COC(C)C [Methyl isopropyl ether] | 32.5 degrees Celcius
78 | CON=O [Methyl nitrite] | −12.0 degrees Celcius
79 | [Ne] [Neon] | −246.0 degrees Celcius
80 | CC(C)(C)C [Neopentane] | 9.5 degrees Celcius
81 | [N]=O [Nitric oxide] | −151.6 degrees Celcius
82 | N#N [Nitrogen (N2)] | −196.0 degrees Celcius
83 | O=NCl [Nitrosyl chloride] | −5.5 degrees Celcius
84 | [N-]=[N+]=O [Nitrous oxide] | −88.5 degrees Celcius
85 | O=C(O)c1c(Cl)c(Cl)c(Cl)c(Cl)c1C(=O)O [Phthalic acid, tetrachloro] | 2.0 degrees Celcius
86 | CC1CCC(C)C(C)N1 (stereo not shown) [Piperidine,2,3,6-trimethyl] | 36.0 degrees Celcius

Same assay, conditions: boiling point under standard pressure conditions; chemical list arranged by total atoms; cited from earlier work

Row | Structure (SMILES) | Boiling Point
87 | CC(C(F)(F)F)C(F)(F)F [1,1,1,3,3,3-hexafluoro-2-methyl-propane] | 21.5 degrees Celcius
88 | FCCC(F)(F)F [1,1,1,3-tetrafluoro-propane] | 29.4 degrees Celcius
89 | CCC(F)(F)F [1,1,1-trifluoro propane] | −13 degrees Celcius
90 | COCC(F)(F)F [1,1,1-trifluoro-2-methoxy-ethane] | 31 degrees Celcius
91 | CCCC(F)(F)F [1,1,1-trifluoro-butane] | 16.74 degrees Celcius
92 | CCC=C(F)F [1,1-difluoro-but-1-ene] | 3.71 degrees Celcius
93 | C=CC=C(F)F [1,1-difluoro-buta-1,3-diene] | 3.5 degrees Celcius
94 | FC(F)(Cl)C(F)(F)Cl [1,2-dichloro-tetrafluoro-ethane] | 3.5 degrees Celcius
95 | CCC(C)(F)F [2,2 difluoro-butane] | 30.92 degrees Celcius
96 | C=C(C)C(F)F [3,3 difluoro-2-methyl-propene] | 28.1 degrees Celcius
97 | C=C(C)C(F)(F)F [3,3,3-trifluoro-2-methyl-propene] | 6 degrees Celcius
98 | CC[C@H](C)CF [(−)(S)-1-fluoro-2-methyl-butane] | 14.1 degrees Celcius
99 | CC(C)C(F)(F)F [Example 2-Trifluoromethyl-propane, 2-Trifluoromethyl-propane] | 13 degrees Celcius
100 | O=C(C(F)(F)F)C(F)(F)[N+](=O)[O-] [Pentafluoronitroacetone] | 32.6 degrees Celcius

Same assay, conditions: dispersed phase of emulsions of Example 18; cited from earlier work

Row | Structure (SMILES) | Boiling Point
101 | FC(F)(F)C(F)(F)C(F)(F)C(F)(F)C(F)(F)C(F)(F)C(F)(F)C(F)(F)I [1-Iodoperfluorooctane, reference compound] | 160 °C
102 | FC(F)(F)C(F)(F)C(F)(F)C(F)(F)F [Decaflurobutane] | −5.8 °C
103 | FC(F)(F)C(F)(F)C(F)(F)C(F)(F)C(F)(F)C(F)(F)C(F)(F)C(F)(F)F [Perfluorooctane, reference compound] | 98 °C
